In US20090275583A1, “ANTIVIRAL COMPOUNDS AND USE THEREOF” (Myriad Genetics, Incorporated, priority 2006, published 2009):
Like-named read-outs stand apart in the source and are kept apart here.

Columns and labels:
[1] = tested on: HIV-1 laboratory strain, NL4-3; assay: MT-4 cytoprotection assay; assay type: cell-based
Experimental: The HTLV-1 transformed T cell line, MT-4, is highly susceptible to HIV-1 infection. Anti-HIV-1 agents were evaluated in this target cell line by protection from the HIV-induced cytopathic effect. In this assay, viability of both HIV-1 and mock-infected cells was assessed in a […] assay that monitors the ability of metabolically-active cells to reduce the tetrazolium salt WST-1. Cytoprotection by antiviral compounds is indicated by the positive readout of increased WST-1 cleavage.
Briefly, exponentially growing MT-4 cells were mock-infected or batch-infected with the HIV-1 laboratory strain, NL4-3, at a multiplicity of infection of 0.0005. Following a two hour infection, the cells were washed to remove unbound virus and plated in the presence of increasing concentrations of compound. After four days incubation, cytoprotection in the infected cells and compound toxicity in mock-infected cells were analyzed using the WST-1 assay.

HIV-1NL4-3 = assay: P4-MAGI assay; assay type: cell-based
From the text: P4 cells were used to test the effects of compounds on virus fusion activity. P4 cells are HIV-1 infectable CD4^+ HeLa cells that bear the bacterial lacZ gene under the control of a minimal HIV-1 LTR. Charneau, et. al., J. Mol. Biol. 241:651-662 (1994). When these cells are infected with HIV-1, β-galactosidase is expressed due to Tat activation of the viral LTR. In this assay, P4 cells were infected with the laboratory adapted strain HIV-1NL4-3 at a multiplicity of infection of 1 in the presence of DEAE-Dextran. Immediately after addition of virus to the cells, increasing concentrations of compound were added to the cells. […] The effect on cell viability (TC50, concentration of compound that inhibits growth by 50%) was determined in mock-infected cells with the WST-1 Cell Proliferation Reagent (Roche Diagnostics).

[2] = Human immunodeficiency virus 1, NL43, MT4, 96 h, MT-4 cells, four days incubation, WST-1 readout, read-out: MT4 EC50
[3] = Human immunodeficiency virus 1, NL43, less than about 100 nm, read-out: MT-4 assay EC50 (concentration of compound that reduces the virus induced cytopathic effect by 50%)
[4] = Human immunodeficiency virus 1, 24 h, P4 cells, 24 hour incubation, β-galactosidase expression, read-out: P4-MAGI IC50
[5] = Human immunodeficiency virus 1, text statement, less than about 100 nm, read-out: P4-MAGI assay IC50

Row | Structure (SMILES) | EC50 [1, 2] | EC50 [1, 3] | IC50 (HIV-1NL4-3; [4]) | IC50 (HIV-1NL4-3; [5])
1 | C=C(C)[C@@H]1CC[C@]2(C(=O)NCc3ccc(F)c(C(=O)NCc4ccc(C(=O)OC)cc4)c3)CC[C@]3(C)C(CCC4[C@@]5(C)CC[C@H](O)C(C)(C)C5CC[C@]43C)C12 (stereo partly drawn) [Example 108] | 100 nM | < 100 nM | 109 nM | 
2 | C=C(C)[C@@H]1CC[C@]2(C(=O)NCCc3cccc(C(=O)NCc4ccc(C(=O)N[C@@H](C(=O)OC)C(C)C)cc4)c3)CC[C@]3(C)C(CCC4[C@@]5(C)CC[C@H](O)C(C)(C)C5CC[C@]43C)C12 (stereo partly drawn) [Example 169] | 9 nM |  | 20 nM | 
3 | C=C(C)[C@@H]1CC[C@]2(C(=O)NCCc3cccc(C(=O)NC(C)(C)c4ccccn4)c3)CC[C@]3(C)C(CCC4[C@@]5(C)CC[C@H](O)C(C)(C)C5CC[C@]43C)C12 (stereo partly drawn) [Example 159] | > 10000 nM |  | 250 nM | 
4 | C=C(C)[C@@H]1CC[C@]2(C(=O)NCCc3ccc(F)c(C(=O)NCc4ccc(C(=O)O)cn4)c3)CC[C@]3(C)C(CCC4[C@@]5(C)CC[C@H](O)C(C)(C)C5CC[C@]43C)C12 (stereo partly drawn) [Example 262] | 7.2 nM |  | 11.5 nM | 
5 | C=C(C)[C@@H]1CC[C@]2(C(=O)NCCc3cccc(C(=O)NCc4ccc(C(=O)O)cc4F)c3)CC[C@]3(C)C(CCC4[C@@]5(C)CC[C@H](O)C(C)(C)C5CC[C@]43C)C12 (stereo partly drawn) [Example 69] | 670 nM |  | 11 nM | < 100 nM
6 | C=C(C)[C@@H]1CC[C@]2(C(=O)NCCc3cccc(C(=O)Nc4cc(C(=O)O)ccc4N)c3)CC[C@]3(C)C(CCC4[C@@]5(C)CC[C@H](O)C(C)(C)C5CC[C@]43C)C12 (stereo partly drawn) [Example 61] | 2300 nM |  | 65 nM | < 100 nM
7 | C=C(C)[C@@H]1CC[C@]2(C(=O)NCCc3cccc(C(=O)NCc4ccc(C(=O)N[C@@H](C(=O)O)[C@H](C)N5CCN(C)CC5)cc4)c3)CC[C@]3(C)C(CCC4[C@@]5(C)CC[C@H](O)C(C)(C)C5CC[C@]43C)C12 (stereo partly drawn) [Example 177] | 92 nM |  | 8 nM | 
8 | C=C(C)[C@@H]1CC[C@]2(C(=O)NCCc3cccc(C(=O)NC(Cc4ccc(OCC(=O)O)cc4)C(=O)O)c3)CC[C@]3(C)C(CCC4[C@@]5(C)CC[C@H](O)C(C)(C)C5CC[C@]43C)C12 (stereo partly drawn) [Example 146] | 3300 nM |  | 197 nM | 
9 | C=C(C)[C@@H]1CC[C@]2(C(=O)NCCc3cccc(C(=O)NCc4nc(C(=O)O)co4)c3)CC[C@]3(C)C(CCC4[C@@]5(C)CC[C@H](O)C(C)(C)C5CC[C@]43C)C12 (stereo partly drawn) [Example 153] | 14 nM |  | 44.7 nM | 
10 | C=C(C)[C@@H]1CC[C@]2(C(=O)NCc3ccc(F)c(C(=O)NCc4cccc(C(=O)O)c4)c3)CC[C@]3(C)C(CCC4[C@@]5(C)CC[C@H](O)C(C)(C)C5CC[C@]43C)C12 (stereo partly drawn) [Example 109] | 50 nM | < 100 nM | 149 nM | 
11 | C=C(C)[C@@H]1CC[C@]2(C(=O)NCCc3cccc(C(=O)NCc4ccc(C(=O)OC)cc4)c3F)CC[C@]3(C)C(CCC4[C@@]5(C)CC[C@H](O)C(C)(C)C5CC[C@]43C)C12 (stereo partly drawn) [Example 93] | 40 nM | < 100 nM | 33.9 nM | < 100 nM
12 | C=C(C)[C@@H]1CC[C@]2(C(=O)NCCc3cccc(C(=O)NCc4nc(C(=O)OC)co4)c3)CC[C@]3(C)C(CCC4[C@@]5(C)CC[C@H](O)C(C)(C)C5CC[C@]43C)C12 (stereo partly drawn) [Example 152] | 14 nM |  | 36 nM | 
13 | C=C(C)[C@@H]1CC[C@]2(C(=O)NCCc3cccc(C(=O)NCc4ccc(-c5nn[nH]n5)cn4)c3)CC[C@]3(C)C(CCC4[C@@]5(C)CC[C@H](O)C(C)(C)C5CC[C@]43C)C12 (stereo partly drawn) [Example 253] | 3.5 nM |  | 10.8 nM | 
14 | C=C(C)[C@@H]1CC[C@]2(C(=O)NCCc3cccc(C(=O)NCc4ccc(C(=O)N[C@H](CCC(=O)O)C(=O)O)cn4)c3)CC[C@]3(C)C(CCC4[C@@]5(C)CC[C@H](O)C(C)(C)C5CC[C@]43C)C12 (stereo partly drawn) [Example 224] | 258 nM |  | 35.5 nM | 
15 | C=C(C)[C@@H]1CC[C@]2(C(=O)NCCc3cccc(C(=O)NCc4ccc(C(=O)O)cc4)c3F)CC[C@]3(C)C(CCC4[C@@]5(C)CC[C@H](O)C(C)(C)C5CC[C@]43C)C12 (stereo partly drawn) [Example 94] | 290 nM |  | 70.5 nM | < 100 nM
16 | C=C(C)[C@@H]1CC[C@]2(C(=O)NCCc3cccc(C(=O)NCc4ccc(OCCCO)cc4)c3)CC[C@]3(C)C(CCC4[C@@]5(C)CC[C@H](O)C(C)(C)C5CC[C@]43C)C12 (stereo partly drawn) [Example 232] | 71.5 nM |  | 38.5 nM | 

Row | Structure (SMILES) | EC50 [1, 2] | EC50 [1, 3] | IC50 (HIV-1NL4-3; [4]) | IC50 (HIV-1NL4-3; [5])
17 | C=C(C)[C@@H]1CC[C@]2(C(=O)NCCc3cccc(C(=O)N[C@@H](CC(C)C)[C@@H](O)CC(=O)O)c3)CC[C@]3(C)C(CCC4[C@@]5(C)CC[C@H](O)C(C)(C)C5CC[C@]43C)C12 (stereo partly drawn) [Example 65] | 83 nM | < 100 nM | 156 nM | 
18 | C=C(CSCCO)[C@@H]1CC[C@]2(C(=O)NCCc3cccc(C(=O)NCc4ccc(C(=O)O)cn4)c3)CC[C@]3(C)C(CCC4[C@@]5(C)CC[C@H](O)C(C)(C)C5CC[C@]43C)C12 (stereo partly drawn) [Example 267] | 46 nM |  | 17.3 nM | 
19 | C=C(C)[C@@H]1CC[C@]2(C(=O)NCCc3cccc(C(=O)N[C@H](C)C4CCC(C(=O)O)CC4)c3)CC[C@]3(C)C(CCC4[C@@]5(C)CC[C@H](O)C(C)(C)C5CC[C@]43C)C12 (stereo partly drawn) [Example 215] | 11.5 nM |  | 22 nM | 
20 | C=C(C)[C@@H]1CC[C@]2(C(=O)NCc3cccc(C(=O)NCc4ccc(O)c(C(=O)O)c4)c3)CC[C@]3(C)C(CCC4[C@@]5(C)CC[C@H](O)C(C)(C)C5CC[C@]43C)C12 (stereo partly drawn) [Example 13] | 873 nM |  | 28 nM | < 100 nM
21 | C=C(C)[C@@H]1CC[C@]2(C(=O)NCc3cccc(C(=O)NCc4ccc(C(=O)OC)s4)c3)CC[C@]3(C)C(CCC4[C@@]5(C)CC[C@H](O)C(C)(C)C5CC[C@]43C)C12 (stereo partly drawn) [Example 29] | 18 nM | < 100 nM | 37.9 nM | < 100 nM
22 | C=C(C)[C@@H]1CC[C@]2(C(=O)NCCc3cccc(C(=O)NCc4ccc(C(=O)NC(Cc5c[nH]cn5)C(=O)O)cc4)c3)CC[C@]3(C)C(CCC4[C@@]5(C)CC[C@H](O)C(C)(C)C5CC[C@]43C)C12 (stereo partly drawn) [Example 184] | 830 nM |  | 104 nM | 
23 | C=C(C)[C@@H]1CC[C@]2(C(=O)NCCc3cccc(C(=O)NCc4ccc(C(=O)NCCN(C)C)cc4)c3)CC[C@]3(C)C(CCC4[C@@]5(C)CC[C@H](O)C(C)(C)C5CC[C@]43C)C12 (stereo partly drawn) [Example 135] | 533 nM |  | 70 nM | < 100 nM
24 | C=C(CSCCC(=O)O)[C@@H]1CC[C@]2(C(=O)NCCc3cccc(C(=O)NCc4ccc(C(=O)O)cc4)c3)CC[C@]3(C)C(CCC4[C@@]5(C)CC[C@H](O)C(C)(C)C5CC[C@]43C)C12 (stereo partly drawn) [Example 268] | 411 nM |  | 104 nM | 
25 | C=C(C)[C@@H]1CC[C@]2(C(=O)NCCc3cccc(C(=O)NCc4ccccn4)c3)CC[C@]3(C)C(CCC4[C@@]5(C)CC[C@H](O)C(C)(C)C5CC[C@]43C)C12 (stereo partly drawn) [Example 150] | 122 nM |  | 24 nM | 
26 | C=C(C)[C@@H]1CC[C@]2(C(=O)NCc3cccc(C(=O)NCCc4ccccc4C(=O)O)c3)CC[C@]3(C)C(CCC4[C@@]5(C)CC[C@H](O)C(C)(C)C5CC[C@]43C)C12 (stereo partly drawn) [Example 10] | 1300 nM |  | 128 nM | 
27 | C=C(CN1CCCC1)[C@@H]1CC[C@]2(C(=O)NCCc3cccc(C(=O)NCc4ccc(C(=O)O)cn4)c3)CC[C@]3(C)C(CCC4[C@@]5(C)CC[C@H](O)C(C)(C)C5CC[C@]43C)C12 (stereo partly drawn) [Example 265] | 172 nM |  | 58 nM | 
28 | C=C(C)[C@@H]1CC[C@]2(C(=O)NCCc3cccc(-c4nnc(Cc5ccc(-c6nn[nH]n6)cc5)o4)c3)CC[C@]3(C)C(CCC4[C@@]5(C)CC[C@H](O)C(C)(C)C5CC[C@]43C)C12 (stereo partly drawn) [Example 217] | 49 nM |  | 87 nM | 
29 | C=C(C)[C@@H]1CC[C@]2(C(=O)NCCc3cccc(C(=O)NCc4ccc(C(=O)N[C@H](CCC(=O)OC)C(=O)OC)cn4)c3)CC[C@]3(C)C(CCC4[C@@]5(C)CC[C@H](O)C(C)(C)C5CC[C@]43C)C12 (stereo partly drawn) [Example 223] | 21 nM |  | 21.7 nM | 
30 | C=C(C)[C@@H]1CC[C@]2(C(=O)NCCc3cccc(S(=O)(=O)NCc4ccc(C(=O)O)cc4)c3)CC[C@]3(C)C(CCC4[C@@]5(C)CC[C@H](O)C(C)(C)C5CC[C@]43C)C12 (stereo partly drawn) [Example 251] | 258 nM |  | 68 nM | 
31 | C=C(C)[C@@H]1CC[C@]2(C(=O)NCCc3cccc(-c4nc5ccc(C(=O)O)cc5[nH]4)c3)CC[C@]3(C)C(CCC4[C@@]5(C)CC[C@H](O)C(C)(C)C5CC[C@]43C)C12 (stereo partly drawn) [Example 130] | 230 nM |  | 39 nM | 
32 | C=C(C)[C@@H]1CC[C@]2(C(=O)NCc3cccc(C(=O)NCCc4cccc(C(=O)O)c4F)c3)CC[C@]3(C)C(CCC4[C@@]5(C)CC[C@H](O)C(C)(C)C5CC[C@]43C)C12 (stereo partly drawn) [Example 36] | 8.5 nM | < 100 nM | 16.4 nM | < 100 nM
